Series [1] is described as follows: SRB cytotoxicity assay, LX-2. The class given is cell-based, human. To be noted: human, LX-2 cells; LX-2, 48 h, SRB. An excerpt: (§1) HEK293 (Human embryonic kidney cell line), HepG2 (Human liver carcinoma cell line), LX-2 (Human hepatic stellate cell line), and 3T3-L1 (Murine preadipocyte cell line) cells were obtained from the American Type Culture Collection (ATCC), Bethesda, MD, USA.
A general note: The SRB assay estimates cell density from bound dye.

The subject of series [2] is LX-2 (Human hepatic stellate cell line). Nature of the series: SRB cytotoxicity assay, LX-2. It is filed as cell-based.
Excerpt: as §1

Another series has as its system 3T3-L1 Mature-adipocytes. Nature of the series: SRB cytotoxicity assay, 3T3-L1 mature adipocytes. The class given is cell-based, murine. To be noted: 48 h. The procedure: (§2) The pre-adipocyte 3T3-L1 cell line was differentiated to become mature adipocytes by culturing the cells to 100% confluence in 10% calf serum DMEM (CS medium), as Day 0 in a 96 well-plate. After post-confluence, the cells were incubated with the induction medium as a differentiation initiation medium (DMEM […] 1 μM DEX, 0.5 mM IBMX, 167 nM insulin, and 10% FBS) for 3 days (Days 1–3). After that, cells were cultured in a differentiation medium as an adipogenic differentiation medium (differentiation media: DMEM containing 167 nM insulin and 10% FBS) for 3 days (Days 4–6). Finally, maturation was induced in an induced-lipid accumulation medium (maturation media: DMEM containing 167 nM insulin and 10% FBS) for 6 days (Days 7–12). The mature adipocytes were then used for toxicity testing.
(§3) The cytotoxicity of the oligopeptide and its conjugated forms on HepG2, HEK293, LX-2, and RAW 264.7 cells, pre- and mature 3T3-L1 adipocytes, and hPBMCs was analyzed by a sulforhodamine (SRB) assay to obtain their non-toxic concentration for further experiments and as screening data for their in vitro safety. The cells were plated for 12 h in 96-well plates and then treated with the oligopeptide and its conjugated sugar at a concentration of 0–1000 µg/mL for 48 h. Dimethyl sulfoxide (DMSO) was used as a vehicle control (the untreated control). At the indicated time, the cells were then fixed and subjected to an SRB assay. The absorbance was measured at 510 nm by spectrophotometry (Gen5, BioTek, Winooski, VT, USA), and the cell viability was calculated as the ratio of the treatment versus untreated control. The data are represented as the mean ± standard deviation of three replicates and are expressed relative to the untreated control. The percentage of cell survival was calculated as follows:% cell survival = (Abs_extract/Abs_control) × 100

Series [3] is described as follows: SRB cytotoxicity assay, 3T3-L1 mature adipocytes. The class given is cell-based, murine. To be noted: mouse; 3T3-L1 Mature-adipocytes, 48 h, SRB. The procedure: as §2, §3
A further series has as its system iNOS. Description: iNOS protein level by immunoblotting in LPS-treated RAW 264.7. The class given is cell-based, murine. To be noted: 100, 200, 400 µg/mL, LPS 1 µg/mL 24 h. The procedure:
RAW 264.7 macrophage cells were pretreated with various concentrations of the oligopeptide and its conjugated forms (100, 200, 400 µg/mL) for an hour and then incubated with LPS (1 µg/mL) for a further 24 h (at 37 °C in a 5% CO2 humidified atmosphere). The cells were then collected to investigate the iNOS and COX-2 protein levels. Cell lysate was prepared to obtain the protein samples. The samples were subjected to 10% sodium dodecyl sulfate polyacrylamide gel electrophoresis (SDS-PAGE). The separated proteins were electrically transferred to a nitrocellulose membrane. The target proteins were probed with specific antibodies, including anti-COX-2 antibody (Cell signaling, Danvers, MA, USA), anti-iNOS antibody (Merck, Rahway, NJ, USA), and anti-β-actin antibody (Sigma, St. Louis, MO, USA). Protein detection was performed using a chemiluminescence reagent (Bio-Rad Laboratories, Watford, UK).
On the technique in general: In western blotting, separated proteins are transferred to a membrane and probed.

For another series, the system named is RAW 264.7 cells. Description: Cell viability (SRB) of RAW 264.7 in the presence of LPS. It is filed as cell-based, murine. The conditions noted are these: up to 400 µg/mL, LPS 1 µg/mL, 24 h.
Series [4] can be described thus: SRB cytotoxicity assay, 3T3-L1 pre-adipocyte. It is filed as cell-based, murine. To be noted: mouse, 3T3-L1 pre-adipocytes; 3T3-L1 Pre-adipocyte, 48 h, SRB.
Excerpt: as §1

The next series has as its system 3T3-L1 Pre-adipocyte. Description: SRB cytotoxicity assay, 3T3-L1 pre-adipocyte. The class given is cell-based, murine. The conditions noted are these: 48 h.
Excerpt: as §1

One may read the IC20 as the concentration needed for an effect of 20%. A lower IC20 goes with greater potency. The IC50 is the point on the concentration scale where inhibition reaches its midpoint.

With `OC[C@H]1OC(O)[C@@H](O)[C@@H](O)[C@@H]1O` (stereo partly drawn) [Man, D-mannose], the IC20 at 48 h in series [1], in series [3] and in series [4] was > 1000 µg/mL each time. Further, the IC50 was > 1000 µg/mL in series [2] (Homo sapiens, LX-2, 48 h, SRB, read-out: IC50); > 1000 µg/mL in the series on 3T3-L1 Mature-adipocytes (Mus musculus, 3T3-L1 Mature-adipocytes, SRB, read-out: IC50); > 1000 µg/mL with 3T3-L1 Pre-adipocyte (Mus musculus, 3T3-L1 Pre-adipocyte, SRB, read-out: IC50). Also, the toxicity to cells entry in series [2] (LX-2, up to 1000 µg/mL, 48 h) is “not toxic”; in the series with 3T3-L1 Mature-adipocytes (mature-3T3-L1, up to 1000 µg/mL) it was “not toxic”; with 3T3-L1 Pre-adipocyte (pre-3T3-L1, up to 1000 µg/mL), “not toxic”. Also, the “effect on iNOS protein level” value with iNOS is listed as “did not affect”. For the same molecule, the “cell viability of RAW 264.7 cells in the presence of LPS” value in the series on RAW 264.7 cells is “did not change”.
